Measurements taken from patent US20210228560A1 (Centogene IP GmbH, priority 2011, published 2021).
Residue numbers refer to the chain shown, from its start. “And” between values parts separate entries of the source, which are not always exact repeats. Equal values may be shown once. Read-outs that look alike come from different tables or passages of the source.

Experiments:
hexosaminidase A = target: T1, hexosaminidase A (Homo sapiens, UniProt P06865+P07686); conditions: cited from earlier work
T1 sequence (P06865 89-529): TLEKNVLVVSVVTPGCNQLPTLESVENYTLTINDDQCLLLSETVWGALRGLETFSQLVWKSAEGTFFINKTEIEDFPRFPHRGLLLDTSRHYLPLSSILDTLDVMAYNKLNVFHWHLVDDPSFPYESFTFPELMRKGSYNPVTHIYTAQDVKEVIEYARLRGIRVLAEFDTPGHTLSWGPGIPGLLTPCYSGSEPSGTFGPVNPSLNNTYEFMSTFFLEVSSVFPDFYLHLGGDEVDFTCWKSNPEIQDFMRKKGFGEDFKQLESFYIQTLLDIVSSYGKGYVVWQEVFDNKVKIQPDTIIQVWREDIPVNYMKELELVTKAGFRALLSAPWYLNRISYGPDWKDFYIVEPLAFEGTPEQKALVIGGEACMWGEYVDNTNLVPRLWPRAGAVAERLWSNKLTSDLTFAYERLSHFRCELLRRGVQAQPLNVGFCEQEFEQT
T1 sequence (P07686 122-556): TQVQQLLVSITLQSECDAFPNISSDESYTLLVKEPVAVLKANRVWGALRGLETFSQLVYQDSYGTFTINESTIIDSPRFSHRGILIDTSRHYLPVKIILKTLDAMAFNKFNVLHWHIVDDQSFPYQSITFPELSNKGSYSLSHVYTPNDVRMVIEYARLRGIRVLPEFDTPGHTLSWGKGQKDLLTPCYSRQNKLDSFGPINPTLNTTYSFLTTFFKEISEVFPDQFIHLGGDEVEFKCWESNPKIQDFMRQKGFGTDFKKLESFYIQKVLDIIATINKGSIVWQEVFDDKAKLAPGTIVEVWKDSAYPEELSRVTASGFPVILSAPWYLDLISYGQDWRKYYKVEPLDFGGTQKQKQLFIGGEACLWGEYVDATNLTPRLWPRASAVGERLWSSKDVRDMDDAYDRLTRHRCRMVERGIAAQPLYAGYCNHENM

[1] = target: acid α-glucosidase mutants (Homo sapiens, UniProt P10253, Y455F); assay type: cell-based; conditions: 20 μM DNJ + 40 μM compound; FIG. 11
Sequence of acid α-glucosidase mutants (Homo sapiens, UniProt P10253, Y455F) (P10253 70-952 Y455F): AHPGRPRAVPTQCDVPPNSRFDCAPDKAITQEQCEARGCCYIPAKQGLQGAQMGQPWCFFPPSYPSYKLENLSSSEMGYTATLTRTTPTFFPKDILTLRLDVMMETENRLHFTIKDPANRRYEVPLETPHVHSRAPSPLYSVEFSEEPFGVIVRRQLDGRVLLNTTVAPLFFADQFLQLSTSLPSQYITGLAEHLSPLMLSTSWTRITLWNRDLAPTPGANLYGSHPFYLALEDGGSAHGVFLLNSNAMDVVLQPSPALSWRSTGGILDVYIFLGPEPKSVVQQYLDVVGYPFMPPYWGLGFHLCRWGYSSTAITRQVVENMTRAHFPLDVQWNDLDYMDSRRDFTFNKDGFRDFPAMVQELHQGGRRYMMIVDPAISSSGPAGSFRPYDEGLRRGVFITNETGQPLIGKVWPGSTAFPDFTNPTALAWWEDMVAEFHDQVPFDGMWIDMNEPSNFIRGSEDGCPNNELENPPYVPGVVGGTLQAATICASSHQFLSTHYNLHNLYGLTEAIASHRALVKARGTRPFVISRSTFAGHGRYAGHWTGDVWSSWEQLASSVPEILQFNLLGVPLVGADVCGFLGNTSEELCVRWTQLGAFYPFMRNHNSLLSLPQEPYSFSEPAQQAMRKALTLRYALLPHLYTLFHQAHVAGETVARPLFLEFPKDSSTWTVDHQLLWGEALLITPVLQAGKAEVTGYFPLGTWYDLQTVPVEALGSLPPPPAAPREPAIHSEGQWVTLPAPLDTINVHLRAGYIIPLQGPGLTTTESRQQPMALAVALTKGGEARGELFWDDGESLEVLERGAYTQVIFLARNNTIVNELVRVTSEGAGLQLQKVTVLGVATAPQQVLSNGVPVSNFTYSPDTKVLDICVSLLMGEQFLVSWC
Method: (§1) A bacterial clone containing the full length cDNA of […] (IRATp970C0971D, aligned to accession no. NM_000152.3, GeneBank) was received form ImaGenes GmbH, Berlin, Germany. Amplification was performed with the primers 5′-TAGGAGCTGTCCAGGCCATC-3′ (SEQ ID NO:3) and 5′-GAGAGACTAACACACTCCGC-3′ (SEQ ID NO:4). The PCR was carried out using iProof DNA Polymerase (BioRad). The cDNA was subcloned into pCRII TA TOPO vector (Invitrogen). Prior to ligation, the cDNA insert was incubated with Taq polymerase (Qiagen) to add a poly (A) overhang at the 3′-end for TA-cloning. For expression, the GAA cDNA was ligated into target vector pcDNA3.1/V5-His6 (Invitrogen) using sticky end ligation utilizing unique restriction sites (HindIII, XhoI) offered by both vectors multiple cloning sites.
(§2) Sample preparation was carried out analogously to the α-galactosidase A recordings. As substrate, a 1.3 mg 4-Methylumbelliferyl-α-D-Glukopyranoside/ml solution (in sodium acetate buffer, pH 4.0) was used and 5 μg sample/reaction were added. The reaction was incubated for 60 minutes at 37° C. and stopped with 1M Glycine-NaOH, pH 10.5.

[2] = cited from earlier work
[3] = Plasma concentration and absorption (literature); assay type: in vivo, human; conditions: 32 mg tablet; estimate
[4] = test system: GLA mutants (alpha-galactosidase A); conditions: for enzyme activity of GLA mutants, compound in combination with DGJ: 40 μM compound + 20 μM DGJ, compared to DGJ alone, DGJ-responsive mutants, FIG. 3, FIG. 6
Alpha-Gal A = conditions: grown in the presence of DGJ, cited from earlier work
GLA = conditions: patient lymphoblasts; cited from earlier work
mutant GLA [5] = conditions: cell-free; cited from earlier work
mutant GLA [6] = conditions: washout two hours prior to assay; cited from earlier work
GLA[A156V] = target: T2, GLA[A156V] (Homo sapiens, UniProt P06280, A156V); assay type: cell-based; conditions: for mutant enzyme activity in combination with DGJ: concentration of SF-54B and SF-55C 10 μM and 40 μM, respectively; for mutant enzyme activity in combination with DGJ, concentration series: increasing concentrations of compound with DGJ, FIG. 10
T2 sequence (P06280 32-429 A156V): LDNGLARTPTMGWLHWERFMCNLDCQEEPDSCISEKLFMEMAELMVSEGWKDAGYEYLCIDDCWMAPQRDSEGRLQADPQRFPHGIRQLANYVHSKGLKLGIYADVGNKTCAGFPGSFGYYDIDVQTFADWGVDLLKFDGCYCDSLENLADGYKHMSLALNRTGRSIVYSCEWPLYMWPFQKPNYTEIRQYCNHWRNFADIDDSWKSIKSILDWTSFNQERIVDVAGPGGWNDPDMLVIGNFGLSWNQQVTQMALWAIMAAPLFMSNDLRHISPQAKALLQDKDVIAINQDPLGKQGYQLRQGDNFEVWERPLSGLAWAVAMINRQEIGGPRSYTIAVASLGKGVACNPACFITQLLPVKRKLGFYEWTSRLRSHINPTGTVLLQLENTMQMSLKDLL

GLA[R301G] = target: T3, GLA[R301G] (Homo sapiens, UniProt P06280, R301G); assay type: cell-based
T3 sequence (P06280 32-429 R301G): T2 sequence (P06280 32-429 A156V) with V125A, R270G

[7] = target: acid α-glucosidase mutants (Homo sapiens, UniProt P10253, L552P); assay type: cell-based; conditions: 20 μM DNJ + 40 μM compound; FIG. 11B
Sequence of acid α-glucosidase mutants (Homo sapiens, UniProt P10253, L552P) (P10253 70-952 L552P): as the sequence (P10253 70-952 Y455F) above, with F386Y, L483P counted along it
Method: as §1, §2

[8] = test system: acid α-glucosidase mutants; assay type: cell-based; conditions: 20 μM NB-DNJ alone; FIG. 7A
Method: as §1, §2

[9] = value with superscript 2 (mark not explained)
[10] = value with superscript 1 (mark not explained)

**Q.** With `CC(=O)NC1CNC(CO)[C@@H](O)C1O` (stereo partly drawn) [2-Acetamido-1,2-dideoxynojirimycin] as the compound, how does the Ki (hexosaminidase A; [9]) read?
**A.** 700 nM

**Q.** With `CC(=O)NC1C(O)NC(CO)[C@@H](O)C1O` (stereo partly drawn) [2-Acetamido-2-deoxynojirimycin (ADNJ), 2-Acetamido-2-deoxynojirimycin] as the compound, how does the Ki (hexosaminidase A; [9]) read?
**A.** 5 nM

**Q.** Which IC50 (hexosaminidase A; [10]) does the source give for `CC(=O)NC1CN2CC[C@H](O)C2[C@@H](O)C1O` (stereo partly drawn) [6-Acetamido-6-deoxycastanospermine] here?
**A.** 500 nM

**Q.** Which “increase in the activity of acid α-glucosidase mutant Y455F, compound with DNJ compared to DNJ alone” value (from here on “increase in the activity … to DNJ alone”) [1] does the source give for `CN(Cc1cc(Br)cc(Br)c1N)C1CCCCC1` [Bromhexine, 2,4-dibromo-6-{[cyclohexyl(methyl)amino]methyl}aniline] here?
**A.** comparable

**Q.** And the intestinal absorption ([2]; 32 mg tablet (77.6 μmol))?
**A.** 22-27%

**Q.** What about the concentration of bromhexine ([2]; Bechgaard et al.) of the same compound?
**A.** 80 nM

**Q.** What about the “resulting concentration referring to blood volume after first pass loss” value [3] of the same compound?
**A.** approximately 0.7 μM

**Q.** What about the “difference of protein activity between Bromhexine and DGJ and Ambroxol and DGJ” value ([4]; 40 μM Bromhexine or Ambroxol + 20 μM DGJ, FIG. 6) of the same compound?
**A.** no significant difference

**Q.** What about the “alpha-Galactosidase A activity of mutant GLAs, bromhexine alone” value ([4]; 40 μM Bromhexine without DGJ, FIG. 6) of the same compound?
**A.** no effect

**Q.** What about the “enzyme activity of GLA mutants, compound in combination with DGJ” value [4] of the same compound?
**A.** significantly increased

**Q.** What about the “enzyme activity of GLA mutants, compound in combination with DGJ” value ([4]; listed as bromhexine) of the same compound?
**A.** increased

**Q.** What does the source list for `OC[C@H]1NC[C@H](O)[C@@H](O)[C@H]1O` [DGJ, 1-Deoxygalactonojirimycin]?
**A.** Alpha-Gal A activity (Alpha-Gal A; other mutations): unaffected; Alpha-Gal A activity (Alpha-Gal A; several mutations): more than 50 % of normal; clinically achievable concentration ([2]; clinical trials, Wu et al.): 10 µM; concentration beyond which GLA activity decreases (GLA): > 100 µM; dosages already inhibiting (mutant GLA [5]): below 1 μM; concentration tolerated without any detectable inhibition of the tested mutant enzyme (mutant GLA [6]): up to 1 mM; increase of GLA[A156V] activity (GLA[A156V]; 20 μM DGJ alone, no Ambroxol, untreated = 1.0, FIG. 5A): 3.8 fold and 4 fold; concentration of DGJ reaching the same effect as 20 μM DGJ alone (GLA[A156V]; with 40 μM Ambroxol in addition, GLA[A156V]): 8.9 µM; increase of GLA[R301G] activity (GLA[R301G]; 20 μM DGJ without Ambroxol, untreated = 1.0, FIG. 5B): 2.8 fold; concentration of DGJ sufficient to reach the level of 20 μM DGJ alone (GLA[R301G]; in combination with 40 μM Ambroxol, mutant not named in the block): 4.72 µM; share of the DGJ concentration needed compared to DGJ alone (GLA[R301G]; in combination with 40 μM Ambroxol, same increase of protein activity): ~25%

**Q.** Which Ki (hexosaminidase A; [10]) does the source give for `CC(=O)N[C@H]1C(O)O[C@H](CO)[C@H](O)[C@@H]1O` (stereo partly drawn) [N-Acetyl-galactosamine (GalNAc), N-Acetyl-galactosamine] here?
**A.** 1.9 nM

**Q.** With `CN(Cc1cc(C#N)cc(C#N)c1N)C1CCCCC1` [SF-54B] as the compound, how does the “increase in the activity … to DNJ alone” value [1] read?
**A.** comparable

**Q.** What about the “mutant enzyme activity in combination with DGJ” value (GLA[A156V]; 20 μM DGJ, FIG. 9) of the same compound?
**A.** high increase

**Q.** And the “mutant enzyme activity in combination with DGJ, concentration series” value (from here on “mutant enzyme activity … concentration series”) (GLA[A156V])?
**A.** high increase

**Q.** For `CN(Cc1cc(C#N)cc(Br)c1N)C1CCCCC1` [SF-55C], which “increase in the activity … to DNJ alone” value [1] is on record?
**A.** comparable

**Q.** And the “mutant enzyme activity in combination with DGJ” value (GLA[A156V]; 20 μM DGJ, FIG. 9)?
**A.** high increase

**Q.** And the “mutant enzyme activity … concentration series” value (GLA[A156V])?
**A.** high increase

**Q.** Which “concentration in combination with DGJ giving an increase as high as Ambroxol at up to 10 μM with DGJ” value (GLA[A156V]; 20 μM DGJ, FIG. 9) does the source give for `Cc1cc(C)cc(-c2cc(CN(C)C3CCCCC3)c(N)c(-c3cc(C)cc(C)c3)c2)c1` [SF-80] here?
**A.** 1 µM

**Q.** For `N#Cc1cc(C#N)c(N)c(CNC2CCC(O)CC2)c1` (stereo not drawn) [SF-124B], which “increase in the activity … to DNJ alone” value [1] is on record?
**A.** comparable

**Q.** What about the “increase in the activity of mutant L552P, compound with DNJ compared to DNJ only” value [7] of the same compound?
**A.** higher

**Q.** Which results are given for `CC(=O)Nc1c(Br)cc(Br)cc1CN(C)C1CCCCC1` [SF-150B]?
**A.** increase in the activity of acid α-glucosidase mutant Y455F, compound with DNJ compared to DNJ alone [1]: higher; increase in the activity of mutant L552P, compound with DNJ compared to DNJ only [7]: higher; mutant enzyme activity in combination with DGJ, concentration series (GLA[A156V]): high increase

**Q.** Which “increase in the activity … to DNJ alone” value [1] does the source give for `CC(=O)OC1CCC(NCc2cc(Br)cc(Br)c2N)CC1` (stereo not drawn) [SF-153B] here?
**A.** higher

**Q.** And the “increase in the activity of mutant L552P, compound with DNJ compared to DNJ only” value [7]?
**A.** higher

**Q.** And the “mutant enzyme activity … concentration series” value (GLA[A156V])?
**A.** high increase

**Q.** With N-butyl-DNJ [NB-DNJ] as the compound, how does the “enzyme activity of mutations Y455F, P545L and L552P, NB-DNJ” value [8] read?
**A.** significantly increased
